Experimental data as given in patent publication US20250388597A1, “BIFUNCTIONAL PHOTOCROSSLINKING PROBES FOR COVALENT CAPTURE OF PROTEIN-NUCLEIC ACID COMPLEXES IN CELLS” (UNIVERSITY OF SOUTHERN CALIFORNIA, priority 2022, published 2025).

System: Hela cells
Experiment: Cell and nuclear permeability by click labelling with Alexa Fluor 647 picolyl azide, fluorescence imaging
Type: cell-based
Conditions: for dependence of immobilized fluorescent signal on probe concentration: 10 μM vs 100 μM under UV illumination, FIG. 14B; for immobilization of Alexa Fluor 647 picolyl azide in cells (cell and nuclear permeability): probe 10 μM or 100 μM, 30 min, UV 365 nm 5 min
Text: FIG. 11A-FIG. 11F depicts permeability and subcellular distribution of the BFPX probe SPB-AAD in Hela cell. Top panel (FIG. 11A-FIG. 11C): buffer control experiments without adding SPB-AAD, (FIG. 11A) bright field; (FIG. 11B) fluorescence imaging of Alexa Fluor; (FIG. 11C) DAPI stain of the nuclei; Bottom panel: treatment with […], (FIG. 11D) bright field; (FIG. 11E) fluorescence imaging of Alexa Fluor; (FIG. 11F) DAPI stain of the nuclei.
FIG. 14A depicts characterization and testing of BFPX crosslinking inside cells. Hela cells were incubated with SPB-AAD or SPB-PEG4-AAD (10 μM or 100 μM) in the dark for 30 min to allow the DNA binding and intercalation by the psoralen moiety of the BFPX probes. After washing off the excessive BFPX probe, illuminate UV 365 nm for 5 min. An Alexa Fluor 647 picolyl azide molecule (from Click-iT™ Plus Alexa Fluor™ 647 Picolyl Azide Toolkit) was used to react with the alkyne group on SPB-AAD or SPB-PEG4-AAD via click reaction. After the click chemistry labeling, the unreacted fluorescent molecules were removed by washing. The nuclei were analyzed using fluorescence imaging. When no BFPX probes were added (columns 1 and 2) or adding probes without UV treatment (columns 3 and 6), little or no fluorescence signal was retained in the cells.
We next tested the cell and nuclear permeability of the BFPX probes using azide-containing fluorescent molecules through click reaction with the terminal alkyne in SPB-AAD and SPB-PEG4-AAD. Briefly, Hela cells were incubated with SPB-AAD or SPB-PEG4-AAD (10 μM or 100 μM) in the dark for 30 min to allow the DNA binding and intercalation by the psoralen moiety of the BFPX probes. After washing off the excess BFPX probes followed by illumination of UV 365 nm for 5 min, Alexa Fluor 647 picolyl azide was coupled to the alkyne group on SPB-AAD or SPB-PEG4-AAD via click reaction. After the click chemistry labeling, the unreacted fluorescent molecules were removed by washing. The nuclei were then be analyzed using fluorescence imaging (FIG. 14A). When no BFPX probes were added (columns 1 and 2) or adding probes without UV treatment (columns 3 and 6), little or no fluorescence signal was retained in the cells.
We also analyzed (i) cell permeability and subcellular distribution of the BFPX probes. We validated the cell and nuclear permeability of the BFPX probes and monitored their sub-cellular distribution using azide-containing fluorescent label through click reaction with the alkyne group (as in SPB-AAD and SPB-PEG3-AAD). Briefly, Hela cells were incubated with SPB-AAD (25 μM) in the dark for 30 min to allow the DNA binding and intercalation by the psoralen moiety of the BFPX probe. […] The nuclei were then analyzed using fluorescence imaging (FIG. 11). […]

Compound	dependence of immobilized fluorescent signal on probe concentration	immobilization of Alexa Fluor 647 picolyl azide in cells (cell and nuclear permeability)
C#CCCC1(CCNC(=O)CCCOc2c3occc3cc3ccc(=O)oc23)N=N1 [SPB-AAD, N-(2-(3-(but-3-yn-1-yl)-3H-diazirin-3-yl)ethyl)-4-((7-oxo-7H-furo[3,2-g]chromen-9-yl)oxy)butanamide]	dosage dependent	could be immobilized in the cells via click reaction
C#CCCC1(CCNC(=O)CCOCCOCCOCCOCCNC(=O)CCCOc2c3occc3cc3ccc(=O)oc23)N=N1 [SPB-PEG4-AAD, N-(2-(3-(but-3-yn-1-yl)-3H-diazirin-3-yl)ethyl)-1-(4-((7-oxo-7H-furo[3,2-g]chromen-9-yl)oxy)butanamido)-3,6,9,12-tetraoxapentadecan-15-amide]	dosage dependent	could be immobilized in the cells via click reaction
